Among the data in patent US20240158385A1, “NOVEL COMPOUNDS” (Cerevance, Inc., priority 2021, published 2024) are IC50 values, retold here.

Where two headings read alike, the source gives them in different places.

For test [1], the target named is T1, human KCNK13 (Homo sapiens, UniProt Q9HB14).
T1 construct: expressed in transfected cells
T1 sequence (Q9HB14 1-408): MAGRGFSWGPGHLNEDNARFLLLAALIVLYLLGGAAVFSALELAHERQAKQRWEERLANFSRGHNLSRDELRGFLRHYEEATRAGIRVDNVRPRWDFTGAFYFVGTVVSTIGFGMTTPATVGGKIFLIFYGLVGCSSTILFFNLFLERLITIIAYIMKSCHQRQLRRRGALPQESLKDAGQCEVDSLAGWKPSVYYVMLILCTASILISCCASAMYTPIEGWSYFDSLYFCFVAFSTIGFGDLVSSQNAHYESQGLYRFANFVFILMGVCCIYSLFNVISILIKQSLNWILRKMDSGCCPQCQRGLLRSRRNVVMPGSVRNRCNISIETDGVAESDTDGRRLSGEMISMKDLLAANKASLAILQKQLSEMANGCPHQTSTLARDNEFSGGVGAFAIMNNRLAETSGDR
As to the kind of experiment: KCNK13 antagonist activity, thallium (Tl+) flux FLIPR assay. It counts as cell-based. The gist of the method: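 HEK 293 cells stably expressing human KCNK13 loaded with Tl+-sensitive dye for 1 h at room temperature. Compounds (10-point half-log curves) preincubated 15 min before thallium sulfate stimulus, fluorescence tracked by FLIPR. IC50 from ten-point curves, each point the mean of two wells.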

The subject of test [2] is IL-1β, mouse primary microglia. Briefly: Inflammasome assay in primary mouse postnatal microglia using LPS/0 mM extracellular K+ (IL-1β levels). The class given is cell-based. Particulars: 100 ng/mL LPS 3.5 hours, compound 30 minutes, then K+ free buffer 2 hours, IL-1β by MesoScale Discovery. How it is done: Newly shaken mouse microglia cells were added to a 96-well plate and left to adhere overnight. After this time, 100 ng/mL LPS was added to each well and incubated at 37° C. for 3.5 hours, at which point compound addition was undertaken and plates incubated at 37° C. for an additional 30 minutes. After this time, the medium in each well was removed and replaced with K^+ free buffer and the plates then incubated for an additional 2 hours at 37° C. Measurement of IL-1βlevels in the sample wells was undertaken using MesoScale Discovery™ MESO QuickPlex SQ 120 and […] from mouse IL-1β DuoSet ELISA kit (R&D System, DY401).

Setting [3] is: HEK 293 cells stably expressing human KCNK13, Tl+ sensitive dye, FLIPR, compounds 15 minutes prior to thallium sulfate, 10 point half log curves from 10 PM, read-out: hKCNK13 IC50.

For `Nc1nonc1-c1nc2cccc(F)c2n1Cc1cccnc1` (single isomer, unassigned) [Example 86, 4-[7-fluoro-1-(pyridin-3-ylmethyl)benzimidazol-2-yl]-1,2,5-oxadiazol-3-amine], the IC50 (commonly the concentration that inhibits the measured activity by half) in test [1] (setting [3]) is less than 0.05 µM; in test [2], not above 0.05 µM.

For `Nc1nonc1-c1nc2cccc(F)c2n1Cc1ccncc1` (single isomer, unassigned) [Example 120, 4-[7-fluoro-1-(pyridin-4-ylmethyl)benzimidazol-2-yl]-1,2,5-oxadiazol-3-amine], the IC50 in test [1] (setting [3]) is less than 0.05 µM; in test [2] it was not above 0.05 µM.

For the molecule `Nc1nonc1-c1nc2ccccc2n1Cc1cncnc1` [Example 21, 4-[1-(pyrimidin-5-ylmethyl)benzimidazol-2-yl]-1,2,5-oxadiazol-3-amine], the IC50 is less than 0.05 µM in test [1] and not above 0.1 µM in test [2].

For `Nc1nonc1-c1nc2cccc(F)c2n1Cc1cnccn1` [Example 32, 4-[7-fluoro-1-(pyrazin-2-ylmethyl)benzimidazol-2-yl]-1,2,5-oxadiazol-3-amine], the figures for the IC50 in test [1] (setting [3]) and in test [2] were less than 0.05 µM and not above 0.2 µM, respectively. In the case of `Cc1nonc1-c1nc2cccc(F)c2n1Cc1cncnc1` [Example 49, 3-[7-fluoro-1-(pyrimidin-5-ylmethyl)benzimidazol-2-yl]-4-methyl-1,2,5-oxadiazole], the IC50 in test [1] (setting [3]) was less than 0.1 µM; in test [2] it was not above 0.05 µM. On to `Cc1nonc1-c1nc2ccccc2n1Cc1cncnc1` [Example 57, 3-methyl-4-[1-(pyrimidin-5-ylmethyl)benzimidazol-2-yl]-1,2,5-oxadiazole], for which the figures for the IC50 in test [1] (setting [3]) and in test [2] were less than 0.1 µM and not above 0.2 µM, respectively. Take `Nc1nonc1-c1nc2ccccc2n1Cc1ccncc1` [Example 71, 4-[1-(pyridin-4-ylmethyl)benzimidazol-2-yl]-1,2,5-oxadiazol-3-amine]: the results for the half-maximal inhibitory concentration (IC50) in test [1] (setting [3]) and in test [2] were less than 0.1 µM and not above 0.2 µM, respectively.

For the molecule `CCS(=O)(=O)c1ccc(Cn2c(-c3nonc3C)nc3ccccc32)cn1` [Example 180, 3-(1-((6-(ethylsulfonyl)pyridin-3-yl)methyl)-benzimidazol-2-yl)-4-methyl-1,2,5-oxadiazole], the IC50 in test [1] (setting [3]) is less than 0.5 µM. Regarding `CSc1ccc(Cn2c(-c3nonc3C)nc3ccccc32)cn1` [Example 181, 3-methyl-4-(1-((6-(methylthio)pyridin-3-yl)methyl)-benzimidazol-2-yl)-1,2,5-oxadiazole], the IC50 in test [1] (setting [3]) was less than 0.5 µM.

As for `Cc1conc1-c1nc2cccc(F)c2n1Cc1cccnn1` [Example 182, 3-(7-fluoro-1-(pyridazin-3-ylmethyl)-benzimidazol-2-yl)-4-methylisoxazole], the IC50 in test [1] (setting [3]) was less than 0.2 µM. Take `Cc1nonc1-c1nc2c(F)ccc(F)c2n1Cc1cccnn1` [Example 185, 3-(4,7-difluoro-1-(pyridazin-3-ylmethyl)-benzimidazol-2-yl)-4-methyl-1,2,5-oxadiazole]: the IC50 in test [1] (setting [3]) is less than 0.05 µM.

As to `Nc1conc1-c1nc2cccc(F)c2n1Cc1cccnn1` [Example 186, 3-(7-fluoro-1-(pyridazin-3-ylmethyl)-benzimidazol-2-yl)isoxazol-4-amine], the IC50 in test [1] (setting [3]) is less than 0.5 µM.
